Tests used:
[1] = tested on: predendritic cells (DC-6); assay: dendritic cell differentiation test: FITC-Dextran take-up; format: cell-based, human; conditions: for concentration inducing differentiation of DC-6 cells into DC-9 cells: summary of phagocytosis and marker data; for Dextran % CD: products redissolved in pyrogen-free water, % of dendritic cells; for Dextran Fluorescence: mean fluorescence value
Description: The ability of products of the invention to induce maturation of predendritic cells into dendritic cells was assessed. The following parameters were measured: FITC-Dextran conjugate take-up and expression of CD83, CD86 surface markers.
Mononucleated cells of peripheral blood are isolated from buffy coats of healthy donors. Purified monocytes by adherence selection are resuspended in RPMI-1640 medium containing 10% of foetal calf serum (FCS), GM-CSF and IL-4 (10 ng/ml) at a density of 1×10^6 cells/ml. Cells are divided into Petri Dishes (10×10^6 cells per dish) and cultured for 6 days with a change to fresh medium after 3 days. Cells thus obtained are called predendritic cells (DC-6). Maturation of predendritic cells into mature dendritic cells is achieved by incubating cells with diluted solutions of the products or LPS (positive control) for 3 more days (see product section below). At day 9 (DC-9), cells are harvested and analyzed for different indicators of dendritic cell maturation: assessment of CD83, CD86 surface marker expression as well as of their ability to take up FITC-Dextran conjugate. All these parameters are analyzed by an EPICS-XL-MCL model FACS (Coulter Immunology, Hialeah, […]).
Expression of surface markers is given as % of mean fluorescence of LPS-activated cells (positive control); FITC-Dextran conjugate take-up rate is calculated based on take-up of cells maintained in basic medium and is expressed in %.
Solutions are incubated at 37° C. for 20 minutes, subjected to vigorous stirring during 3 minutes and then diluted to 100 μg/ml in RPMI-1640 culture medium and used in diluted state at concentrations ranging from 10 μg/ml to 0.03 μg/ml. Reference Product: E. coli lipopolysaccharide (LPS, DIFCO, Detroit, Mich., U.S.A.), as a 5 mg/ml stock solution in PBS. An intermediate 100 μg/ml solution is prepared in RPMI 1640 culture medium. Concentrations of dilute solutions being tested range from 1 μg/ml to 0.03 μg/ml.
In another series of experiments, all acyl dipeptide-like compounds were freeze-dried and directly redissolved into pyrogen-free water. Different products as well as LPS control are tested at a concentration of 10 μg/ml. Results are given as % of dendritic cells and mean fluorescence value for dextran phagocytosis or CD86 surface marker expression.
Immature dendritic cells (DC-6) resulting from monocyte differentiation, through the joint action of GM-CSF and IL-4, are able to incorporate FITC-Dextran conjugate. During the maturation process, cells lose their ability to incorporate the FITC-Dextran conjugate. Assays are conducted upon reaching the DC-9 differentiation stage.

[2] = tested on: (NANP)6P2P30 antigen; assay: (NANP)6P2P30 murine immunization model: anti-(NANP)6P2P30 IgG (ELISA); format: in vivo, BALB/c mice; conditions: two s.c. shots, serum at 5 weeks, FIG. 79
[3] = tested on: HIV-2 ROD; assay: anti-HIV activity in MT-4 cells (MTT), HIV-2 ROD; format: cell-based
Description: T MT-4 lymphocyte cell line which had been transformed into a continuous cell line by an HTLV infection, a virus associated with one form of leukemia, was used to test the antiviral activity (anti-HIV) of AZT- and d4T-conjugated compounds according to the invention, respectively. A characteristic feature of such cells is lack of survival following an HIV infection. The test is based on protection provided by the product (like AZT) against this viral destructive effect. Products were tested in serially diluted solutions in a 96-well plate. In the upper portion of the microplate, products were tested by incubation at various concentrations with cells and virus (in triplicate), so as to determine the concentration of product which affords cell protection against the viral destructive effect. IC50 of the product is taken as the concentration where a 50% loss of viable cell count is recorded. Viable cell count was done with MTT, a yellow tetrazolium compound which undergoes enzymatic reduction (at the mitochondrial level in viable cells) into a purple colored formazan compound. Wells containing viable cells are purple in colour, whereas dead cells give a persistent yellow color. Measurement of optical density (O.D.) allows this effect to be quantified.

[4] = cytotoxicity on virus-free MT-4 cells (MTT); format: cell-based; conditions: human, MT-4 cells (virus-free)
Description: Cytotoxicity of a given product is assessed in the same manner in the lower portion of the plate where the test is conducted by incubating serially diluted products over virus-free cells, to thereby determine the toxic effect of products on cells. The result is given as CC50, i.e. the concentration at which 50% of cells are dead due to product toxicity. Selectivity (selectivity index, SI) of a given product is defined as a CC50/IC50 ratio. This parameter is of great importance since the selectivity index of a fairly efficient product is high.

Row | SMILES | Dextran % CD ([1]; 10 μg/ml) [%] | Dextran Fluorescence ([1]; 10 μg/ml) | other results
1 | CCCCCCCCCCCC(=O)O[C@H](CCCCCCCCCCC)CC(=O)N[C@H](CC(=O)O)C(=O)NCCC[C@H](CO)NC(=O)C[C@H](O)CCCCCCCCCCC [OM-197-MC, N—[(R)-3-dodecanoyloxytetradecanoyl]-D-aspartic acid, α-N-{(4R)-5-hydroxy-4[(R)-3-hydroxytetradecanoylamino]-pentyl}amide] |  |  | decrease of phagocytic capacity ([1]; 10 μg/ml): 22%; effect on phagocytosis ([1]; concentrations lower than 3 μg/ml): no effect on phagocytosis; concentration inducing differentiation of DC-6 cells into DC-9 cells [1]: greater than 1 μg/ml; anti-(NANP)6P2P30 IgG serologic response [2]: greatly superior to the one observed when injecting antigen alone
2 | CCCCCCCCCCCC(=O)O[C@H](CCCCCCCCCCC)CC(=O)NC(CCOP(=O)(O)O)C(=O)NCCC[C@H](COC(=O)CCCCCN)NC(=O)C[C@H](O)CCCCCCCCCCC (mixture of isomers) [OM-197-MP-AC (R/S, R), (3RS,9R)-3-[(R)-3-dodecanoyloxytetradecanoylamino]-4oxo-5-aza-9-[(R)-3-hydroxytetradecanoylamino]-decan-10-ol 1-dihydrogen-phosphate(6-aminohexanoate)] | 84.6 | 6.3 | phagocytic capacity retained (% incorporation of FITC-Dextran of unchallenged cells) ([1]; DC-9 stage, FIG. 74): 22%; concentration required to induce full decrease of Dextran take-up ([1]; FIG. 74): at least 1 μg/ml; concentration inducing differentiation of DC-6 cells into DC-9 cells [1]: 0.1 µg/mL
3 | CCCCCCCCCCCC(=O)O[C@H](CCCCCCCCCCC)CC(=O)N[C@H](CC(=O)N[C@@H](CCCCN)C(=O)O)C(=O)NCCC[C@H](CO)NC(=O)C[C@H](O)CCCCCCCCCCC [OM-197-Lys] | 12.1 | 0.5 | 
4 | CCCCCCCCCCCC(=O)O[C@H](CCCCCCCCCCC)CC(=O)N[C@H](CC(=O)N[C@@H](CC(=O)O)C(=O)O)C(=O)NCCC[C@H](CO)NC(=O)C[C@H](O)CCCCCCCCCCC [OM-197-Asp, N—[(R)-3-dodecanoyloxytetradecanoyl]-D-aspartic acid, α-N-{(4R)-5-hydroxy-4-[(R)-3-hydroxytetradecanoylamino]-pentyl}Amide β-N-[(1S)-1,2-Dicarboxyethyl]Amide] | 26.4 | 2.4 | 
5 | CCCCCCCCCCCC(=O)O[C@H](CCCCCCCCCCC)CC(=O)NC(CCOP(=O)(O)O)C(=O)NCCCC(COC(=O)CCCCC(O)CO)NC(=O)C[C@H](O)CCCCCCCCCCC (stereo partly drawn) [OM-197-FV6, 3-[(R)-dodecanoyloxytetradecanoylamino]-4oxo-5-aza-9-[(R)-3-hydroxytetradecanoylamino]-decan-1,10-diol 1-dihydrogenphate 10-(6,7-dihydroxyheptanoate)] | 84.5 | 6.3 | effect on maturation of dendritic cells ([1]; 0.03 to 10 μg/ml): apparently no effect; concentration inducing differentiation of DC-6 cells into DC-9 cells [1]: totally lack such an activity; anti-(NANP)6P2P30 IgG serologic response [2]: greatly superior to the one observed when injecting antigen alone
6 | CCCCCCCCCCCC(=O)O[C@H](CCCCCCCCCCC)CC(=O)N[C@H](CC(=O)O)C(=O)NCCC[C@H](COC(=O)CCCCCN)NC(=O)C[C@H](O)CCCCCCCCCCC [OM-197-MC-AC, N—[(R)-3-dodecanoyloxytetradecanoyl]-D-aspartic acid, α-N-{(4R)-5-(6-aminohexanoyloxy)-4-[(R)-3-hydroxytetradecanoylamino]pentyl}amide] | 68.3 | 5.2 | 
7 | CCCCCCCCCCCC(=O)O[C@H](CCCCCCCCCCC)CC(=O)N[C@H](CC(=O)O)C(=O)NCCC[C@H](COC(=O)CCCCCNC(=O)CCC(=O)OC[C@H]1O[C@@H](n2cc(C)c(=O)[nH]c2=O)C[C@@H]1N=[N+]=[N-])NC(=O)C[C@H](O)CCCCCCCCCCC [OM-197-MC-AC-Succ-AZT] | 62.2 | 4.8 | IC50 [3]: 61 nM; ability to induce differentiation of predendritic cells into dendritic cells ([1]; 10 μg/ml): significant ability to induce differentiation into dendritic cells; CC50 [4]: > 94000 nM
8 | CCCCCCCCCCCC(=O)O[C@H](CCCCCCCCCCC)CC(=O)N[C@H](CC(=O)O)C(=O)NCCC[C@H](COC(=O)CCCCCNC(=O)CCC(=O)OC[C@@H]1C=C[C@H](n2cc(C)c(=O)[nH]c2=O)O1)NC(=O)C[C@H](O)CCCCCCCCCCC [OM-197-MC-AC-Succ-d4T] | 11.6 | 0.5 | IC50 [3]: 510 nM; CC50 [4]: ~97000 nM
9 | CCCCCCCCCCCC(=O)O[C@H](CCCCCCCCCCC)CC(=O)N[C@H](CC(=O)O)C(=O)NCCC[C@H](COC(=O)CCCCC(O)CO)NC(=O)C[C@H](O)CCCCCCCCCCC (stereo partly drawn) [OM-197-MC-FV5, N—[(R)-3-dodecanoyloxytetradecanoylamino]-D-aspartic acid, α-N-{(4R)-5-hydroxy-4-[(R)-3-hydroxytetra-decanoylamino]-pentyl}amide 5-O-(6,7-dihydroxyheptanoate)] | 86.5 | 6.4 | 
10 | CCCCCCCCCCCC(=O)O[C@H](CCCCCCCCCCC)CC(=O)N[C@H](CC(=O)N[C@@H](CC(=O)O)C(=O)O)C(=O)NCCC[C@H](COC(=O)CCCCCN)NC(=O)C[C@H](O)CCCCCCCCCCC [OM-197-Asp-AC, N—[(R)-3-dodecanoyloxytetradecanoyl]-D-aspartic acid, α-N-{(4R)-5-(6-aminohexanoyloxy)-4-[(R)-3-hydroxytetradecanoyl-amino]-pentyl}amide β-N-[(1S)-1,2-dicarboxyethyl]Amide] | 22.0 | 22.1 | 
11 | CCCCCCCCCCCC(=O)O[C@H](CCCCCCCCCCC)CC(=O)N[C@H](CC(=O)O)C(=O)NCCC[C@H](COC(=O)CCC(=O)O)NC(=O)C[C@H](O)CCCCCCCCCCC [OM-197-MC-Succ] | 35.5 | 3.0 | 
12 | CCCCCCCCCCCC(=O)O[C@H](CCCCCCCCCCC)CC(=O)N[C@H](CC(=O)N[C@@H](CCCCN)C(=O)O)C(=O)NCCC[C@H](COC(=O)CCCCCN)NC(=O)C[C@H](O)CCCCCCCCCCC [OM-197-Lys-AC] | 92.2 | 6.8 | 
13 | CCCCCCCCCCCC(=O)O[C@H](CCCCCCCCCCC)CC(=O)N[C@H](CC(=O)NCCCN)C(=O)NCCC[C@H](CO)NC(=O)C[C@H](O)CCCCCCCCCCC [OM-197-AP, N—[(R)-3-dodecanoyloxytetradecanoyl]-D-aspartic acid, α-N-{(4R)-5-hydroxy-4-[(R)-3-hydroxy-tetradecanoylamino]pentyl}-amide β-N-(3-aminopropyl)amide] | 56.1 | 4.4 | 
